Key:
[1] = Purity and stability study (solution, photo, oxidation, solid state); assay type: physicochemical
Method: A purity and stability study was performed on exo-7-(8-aza-bicyclo[3.2.1]oct-3-yloxy)-chromen-2-one (compound (I)) hydrochloride anhydrate, showing that the compound is chemically and thermodynamically stable as solid and in solution, but sensitive to light when in solution.

[2] = Cardiovascular safety in anaesthetised dogs
Method: Data presented are mean±s.e. mean where n=4 for all time points, excluding D2t7 where n=3, D3t7 where n=2, and D4t7 and D4t26 where no data was available. Animals received 1, 3, 10, and 30 mg/kg compound (I) as 4 intravenous infusions (starting at t0, D1t30, D2t30 and D3t30, respectively). Each dose was administered over 5 min, using an infusion pump, and the dose volume for each treatment was 2 ml/kg, with the exception of the fourth dose which was 3 ml/kg.
Data presented are mean±s.e. mean where n=4 for all time points, excluding D4t7 and D4t26 where no data was available. Animals received 1, 3, 10, and 30 mg/kg compound (I) as 4 intravenous infusions (starting at t0, D1t30, D2t30 and D3t30, respectively). Each dose was administered over 5 min, using an infusion pump, and the dose volume for each treatment was 2 ml/kg, with the exception of the fourth dose which was 3 ml/kg.

[3] = 5 days p.o. tolerated dose study in female rats (non-GLP); assay type: in vivo, rat; conditions: p.o. 5 days, 30, 60, 90 mg/kg
[4] = test system: brain levels of noradrenalin (NA); assay: In vivo microdialysis, NA; set-up: species or system rat
Method: The purpose of the present study was to examine, by in vivo microdialysis technique, the effects after administration of compound (I) on brain levels of serotonin, noradrenalin and dopamine within the ventral hippocampus (Hipp), prefrontal cortex (PFC), striatum (STR) and nucleus accumbens (N.Acc) of anaesthetized rats and mice. Compound (I) represents dual acting serotonin/dopamine reuptake inhibitors and was tested in comparison to citalopram a selective serotonin uptake inhibitor. Compound (I) was tested following subcutaneous injections at dose levels between 0.25-30 mg/kg. […] Pre-treatment with the 5-HT1A autoreceptor antagonist WAY-100635 induced a further minor increase of the compound (I) (0.25 mg/kg) induced increase in the PFC level of 5-HT.

Nicotinic α7 = Nicotinic α7 (Rattus norvegicus, UniProt Q05941); assay: In-house nicotinic binding assay, Nicotinic α7
[5] = biological target: T1, dopamine transporter (DAT) (Mus musculus, UniProt Q61327); assay: MPTP model of DAT inhibition (striatal dopamine depletion); assay type: in vivo, C57 mouse; set-up: Dopamine Mean ± SEM / DOPAC Mean ± SEM / HVA Mean ± SEM: unit not given here
T1 construct: in vivo DAT transporter occupancy (open bars) in mouse striatum; from tissue; host or cells: mouse striatum (in vivo; C57 mice in the MPTP model)
Description: In this model compound (I) induced protection against the dopamine depletion induced by the entry of the MPTP metabolite MPP+ into the dopamine terminals of the mouse C57 striatal tissue.

Nicotinic α4β2 = Nicotinic α4β2 (Rattus norvegicus, UniProt P09483+P12390); assay: In-house nicotinic binding assay, Nicotinic α4β2
NA transporter = NA transporter (Rattus norvegicus, UniProt Q63380); assay: ^3H-uptake rat, NA transporter; assay type: biochemical
Description: Compound (I) has been characterized as a monoamine reuptake inhibitor, based on the profile in a series of functional assays (Table 2).

CYP 2C9 = CYP 2C9 (Homo sapiens, UniProt P11712); assay: CYP450 inhibition, cocktail of selective substrates, 2C9; assay type: in vitro ADME; conditions: CYP 2C9, Tolbutamide to 4-hydroxytolbutamide; read-out: IC50 of compound (I)
Method: (§1) Compound (I) was tested for CYP450 inhibition using a cocktail of selective substrates. […] This might be addressed later in a clinical study.

[6] = Linearity after single s.c. dose in rat; assay type: in vivo; conditions: for AUC(0-inf) / Cmax / bioavailability / half-life: Wistar, rat; for AUC(0-inf) / Cmax / bioavailability / half-life / Tmax: plasma, sc; for half-life: read-out: T½ (converted); for Tmax: male Wistar rat, 5% Tween 80
CYP 2C19 = CYP 2C19 (Homo sapiens, UniProt P33261); assay: CYP450 inhibition, cocktail of selective substrates, 2C19; assay type: in vitro ADME; conditions: CYP 2C19, Omeprazole to 5-hydroxyomeprazole; read-out: IC50 of compound (I)
Method: as §1

NMRI mice = assay: Mouse stress-induced hyperthermia test (mSIH); assay type: in vivo
Method: FIG. 14: Stress-induced hyperthermia. When mice are confronted with a stress-full event, the body temperature rises.
Compound (I) was tested in three widely used behavioural screens for predicting anxiolytic effects in the clinic: the mouse marble burying test (mMB), mouse zero maze (mZM) and mouse stress-induced hyperthermia test (mSIH).

hERG channels = hERG channels (Homo sapiens, UniProt Q12809); assay: cell-based
Method: A HEK293 cell line stably expressing Kv11.3 for hERG and KCNE1 (minK) was established. The effect of compound (I) on the amount of current carried by hERG channels was assessed in whole-cell patch clamp experiments. The channels were activated by a voltage protocol designed to simulate a human cardiac action potential.

[7] = Metabolic stability in human hepatocytes; assay type: in vitro ADME; conditions: 120 minutes at 10 μM
Method: The stability of compound (I) was tested in human hepatocytes incubating for 120 minutes at 10 μM. The compound was stable in human hepatocytes.

[8] = Metabolic stability in liver microsomes, dog; assay type: in vitro ADME
Method: The metabolic stability of compound (I) was tested in liver microsomes from all in house available species at 1 and 5 μM. One metabolite of 16 mass units higher than parent, was found in all incubations, except with human liver microsomes.

[9] = Bioavailability study in mouse; assay type: in vivo
Description: Compound (I) is absorbed quickly.

[10] = 7.5 mg/kg p.o. 0 min + MPTP 25 mg/kg s.c. 60 min
[11] = 15 mg/kg p.o. 0 min + MPTP 25 mg/kg s.c. 60 min
[12] = 30 mg/kg p.o. 0 min + MPTP 25 mg/kg s.c. 60 min
[13] = female, NMRI, plasma, intravenous, 10 mg/kg
[14] = female, NMRI, plasma, po, 10 mg/kg p.o.

T1 sequence (Q61327 whole entry): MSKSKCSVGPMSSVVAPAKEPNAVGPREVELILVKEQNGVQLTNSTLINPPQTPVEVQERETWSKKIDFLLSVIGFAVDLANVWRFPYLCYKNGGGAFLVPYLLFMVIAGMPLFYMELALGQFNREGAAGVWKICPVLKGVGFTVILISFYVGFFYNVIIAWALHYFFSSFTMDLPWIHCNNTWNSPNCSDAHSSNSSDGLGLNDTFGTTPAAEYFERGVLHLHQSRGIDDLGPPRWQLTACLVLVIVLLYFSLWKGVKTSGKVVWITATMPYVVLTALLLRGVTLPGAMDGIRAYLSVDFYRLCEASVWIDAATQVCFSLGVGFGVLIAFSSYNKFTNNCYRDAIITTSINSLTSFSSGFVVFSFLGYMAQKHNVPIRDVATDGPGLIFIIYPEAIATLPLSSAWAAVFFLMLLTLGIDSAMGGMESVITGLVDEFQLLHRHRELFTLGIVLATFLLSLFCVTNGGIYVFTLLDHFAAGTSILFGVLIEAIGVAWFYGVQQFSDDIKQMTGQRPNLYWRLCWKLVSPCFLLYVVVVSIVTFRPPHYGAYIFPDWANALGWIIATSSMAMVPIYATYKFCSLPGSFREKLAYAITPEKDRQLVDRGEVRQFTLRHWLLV
CYP 2C9, sequence (P11712 whole entry): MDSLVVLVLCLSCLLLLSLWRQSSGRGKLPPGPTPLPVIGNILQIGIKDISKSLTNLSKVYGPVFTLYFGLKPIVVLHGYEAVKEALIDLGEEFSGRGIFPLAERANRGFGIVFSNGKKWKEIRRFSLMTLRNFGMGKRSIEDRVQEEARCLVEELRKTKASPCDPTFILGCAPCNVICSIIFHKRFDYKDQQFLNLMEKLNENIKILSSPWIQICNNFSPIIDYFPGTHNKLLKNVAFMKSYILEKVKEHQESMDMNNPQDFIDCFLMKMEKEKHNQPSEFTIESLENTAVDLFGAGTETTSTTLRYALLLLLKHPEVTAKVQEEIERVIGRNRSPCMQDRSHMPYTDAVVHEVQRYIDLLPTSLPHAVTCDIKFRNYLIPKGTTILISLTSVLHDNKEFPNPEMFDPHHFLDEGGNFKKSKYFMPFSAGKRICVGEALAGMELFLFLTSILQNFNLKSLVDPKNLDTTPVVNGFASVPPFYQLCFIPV
NA transporter, sequence (Q63380 1-617): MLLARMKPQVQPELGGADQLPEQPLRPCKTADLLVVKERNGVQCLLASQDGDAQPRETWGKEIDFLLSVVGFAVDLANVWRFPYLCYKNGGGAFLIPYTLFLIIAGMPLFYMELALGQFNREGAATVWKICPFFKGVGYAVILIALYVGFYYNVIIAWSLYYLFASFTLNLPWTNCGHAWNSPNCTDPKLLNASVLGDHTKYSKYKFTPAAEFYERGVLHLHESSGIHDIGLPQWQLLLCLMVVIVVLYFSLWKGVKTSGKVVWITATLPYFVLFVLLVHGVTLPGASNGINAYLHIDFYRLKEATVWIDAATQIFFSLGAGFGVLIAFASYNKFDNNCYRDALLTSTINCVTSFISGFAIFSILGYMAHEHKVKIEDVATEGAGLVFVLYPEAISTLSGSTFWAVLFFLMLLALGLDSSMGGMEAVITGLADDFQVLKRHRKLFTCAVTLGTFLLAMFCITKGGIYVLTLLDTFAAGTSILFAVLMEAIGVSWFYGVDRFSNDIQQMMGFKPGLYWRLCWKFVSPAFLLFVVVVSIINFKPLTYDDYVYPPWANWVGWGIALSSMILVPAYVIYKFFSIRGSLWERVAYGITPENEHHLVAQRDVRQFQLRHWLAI
hERG channels, sequence (Q12809 whole entry): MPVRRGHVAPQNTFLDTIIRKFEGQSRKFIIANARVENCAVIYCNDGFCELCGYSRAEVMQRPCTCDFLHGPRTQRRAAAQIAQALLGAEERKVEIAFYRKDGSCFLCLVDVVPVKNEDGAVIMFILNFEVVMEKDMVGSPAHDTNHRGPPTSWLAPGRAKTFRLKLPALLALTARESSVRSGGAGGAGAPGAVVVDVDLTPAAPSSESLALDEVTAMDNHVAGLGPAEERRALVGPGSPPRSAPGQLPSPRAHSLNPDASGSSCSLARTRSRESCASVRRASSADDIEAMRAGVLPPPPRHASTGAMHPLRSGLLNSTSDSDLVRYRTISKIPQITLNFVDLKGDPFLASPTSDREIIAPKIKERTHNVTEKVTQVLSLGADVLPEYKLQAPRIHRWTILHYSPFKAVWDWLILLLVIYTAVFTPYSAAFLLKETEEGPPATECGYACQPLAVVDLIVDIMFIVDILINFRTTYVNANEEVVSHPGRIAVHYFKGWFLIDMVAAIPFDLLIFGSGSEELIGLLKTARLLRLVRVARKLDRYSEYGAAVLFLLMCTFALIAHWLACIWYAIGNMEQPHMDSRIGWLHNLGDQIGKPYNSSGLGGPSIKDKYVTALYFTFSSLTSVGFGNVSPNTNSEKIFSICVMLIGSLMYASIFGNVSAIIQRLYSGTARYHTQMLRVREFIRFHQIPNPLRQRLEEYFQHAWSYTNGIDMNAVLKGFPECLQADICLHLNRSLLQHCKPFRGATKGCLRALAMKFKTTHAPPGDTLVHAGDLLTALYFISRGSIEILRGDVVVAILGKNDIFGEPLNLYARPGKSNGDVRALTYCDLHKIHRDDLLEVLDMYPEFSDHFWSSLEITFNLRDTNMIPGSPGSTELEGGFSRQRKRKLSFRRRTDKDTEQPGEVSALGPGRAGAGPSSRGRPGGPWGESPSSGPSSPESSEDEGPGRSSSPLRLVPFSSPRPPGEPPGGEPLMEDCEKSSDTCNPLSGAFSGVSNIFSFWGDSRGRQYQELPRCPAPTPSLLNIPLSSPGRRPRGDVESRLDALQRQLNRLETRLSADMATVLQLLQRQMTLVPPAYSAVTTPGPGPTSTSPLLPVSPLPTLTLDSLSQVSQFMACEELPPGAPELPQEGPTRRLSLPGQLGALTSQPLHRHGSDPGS
Nicotinic α7, sequence (Q05941 23-502): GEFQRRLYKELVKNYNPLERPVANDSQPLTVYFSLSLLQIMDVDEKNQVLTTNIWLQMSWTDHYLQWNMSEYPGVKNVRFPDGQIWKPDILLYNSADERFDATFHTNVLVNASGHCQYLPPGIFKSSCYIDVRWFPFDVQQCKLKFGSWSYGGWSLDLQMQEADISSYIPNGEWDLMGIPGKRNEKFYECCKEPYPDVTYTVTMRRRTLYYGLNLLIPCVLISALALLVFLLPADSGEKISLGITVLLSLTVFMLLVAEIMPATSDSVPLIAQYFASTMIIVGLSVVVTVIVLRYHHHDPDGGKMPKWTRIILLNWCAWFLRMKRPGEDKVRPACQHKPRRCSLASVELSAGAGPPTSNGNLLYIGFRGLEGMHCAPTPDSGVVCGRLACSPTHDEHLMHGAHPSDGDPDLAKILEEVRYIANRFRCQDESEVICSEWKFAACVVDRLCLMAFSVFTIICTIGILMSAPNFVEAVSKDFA
Nicotinic α4β2, sequence (P09483 31-630): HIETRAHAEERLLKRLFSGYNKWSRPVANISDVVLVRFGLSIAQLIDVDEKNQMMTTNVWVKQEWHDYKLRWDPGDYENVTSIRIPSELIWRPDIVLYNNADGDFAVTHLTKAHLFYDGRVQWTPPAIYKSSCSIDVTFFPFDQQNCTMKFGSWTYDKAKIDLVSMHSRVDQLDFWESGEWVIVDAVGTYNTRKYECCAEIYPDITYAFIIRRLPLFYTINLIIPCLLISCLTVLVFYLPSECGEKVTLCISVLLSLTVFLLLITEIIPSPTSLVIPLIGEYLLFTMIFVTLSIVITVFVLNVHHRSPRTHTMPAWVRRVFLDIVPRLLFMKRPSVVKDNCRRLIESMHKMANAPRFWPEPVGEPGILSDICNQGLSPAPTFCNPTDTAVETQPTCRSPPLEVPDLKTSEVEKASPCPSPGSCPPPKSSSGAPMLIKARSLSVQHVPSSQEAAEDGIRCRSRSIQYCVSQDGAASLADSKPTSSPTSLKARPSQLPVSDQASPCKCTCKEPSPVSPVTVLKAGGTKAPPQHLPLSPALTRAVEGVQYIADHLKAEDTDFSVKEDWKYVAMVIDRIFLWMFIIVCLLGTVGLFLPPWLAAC
Nicotinic α4β2, sequence (P12390 25-500): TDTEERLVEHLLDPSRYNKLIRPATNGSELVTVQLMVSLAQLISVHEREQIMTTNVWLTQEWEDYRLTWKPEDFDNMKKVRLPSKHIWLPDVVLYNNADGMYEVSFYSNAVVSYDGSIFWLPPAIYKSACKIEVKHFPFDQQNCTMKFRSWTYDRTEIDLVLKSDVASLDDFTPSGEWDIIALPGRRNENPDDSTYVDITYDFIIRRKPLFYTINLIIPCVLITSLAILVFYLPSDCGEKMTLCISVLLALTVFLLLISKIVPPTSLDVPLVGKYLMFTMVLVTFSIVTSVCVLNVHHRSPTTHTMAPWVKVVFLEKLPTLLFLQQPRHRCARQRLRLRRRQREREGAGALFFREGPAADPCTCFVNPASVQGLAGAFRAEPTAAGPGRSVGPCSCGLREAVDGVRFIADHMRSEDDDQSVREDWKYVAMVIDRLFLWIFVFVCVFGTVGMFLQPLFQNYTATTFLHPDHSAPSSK
CYP 2C19, sequence (P33261 whole entry): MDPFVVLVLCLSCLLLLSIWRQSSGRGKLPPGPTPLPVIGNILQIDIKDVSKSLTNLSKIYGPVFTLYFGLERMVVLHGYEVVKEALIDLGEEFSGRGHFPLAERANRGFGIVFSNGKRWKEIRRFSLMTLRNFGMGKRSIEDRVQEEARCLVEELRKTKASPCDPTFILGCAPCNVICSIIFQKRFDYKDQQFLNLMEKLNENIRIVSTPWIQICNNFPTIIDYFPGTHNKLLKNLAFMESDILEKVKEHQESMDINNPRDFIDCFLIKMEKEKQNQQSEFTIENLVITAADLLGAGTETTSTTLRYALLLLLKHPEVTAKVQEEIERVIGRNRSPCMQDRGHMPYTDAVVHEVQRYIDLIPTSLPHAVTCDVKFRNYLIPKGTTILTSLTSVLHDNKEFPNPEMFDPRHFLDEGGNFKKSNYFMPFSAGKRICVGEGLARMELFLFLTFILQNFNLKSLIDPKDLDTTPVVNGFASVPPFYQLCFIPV

For `O=c1ccc2ccc(O[C@@H]3C[C@H]4CC[C@@H](C3)N4)cc2o1` [Compound (I), exo-7-(8-aza-bicyclo[3.2.1]oct-3-yloxy)-chromen-2-one], the “Compound (I), % left after 1 d at 40° C.” value ([1]; Oxidation, 5% H2O2, 0.15 mM) was 83%, the “Compound (I), % left after 3 h at 250 W/m^2” value ([1]; Photostability at pH 7.4) was 11% and the “% left after 26 d at 40° C. 75% rel. humidity in open container” value ([1]; Solid state stability) was 100%. The “Compound (I), % left after 1 d at 40° C.” value ([1]; Stability at pH 1.0, 0.15 mM) was 100%, the “Compound (I), % left after 1 d at 40° C.” value ([1]; Stability at pH 7.4, 0.15 mM) was 100% and the Heart rate ([2]; 1, 3, 10 and 30 mg/kg i.v.) was “Dose-dependent increases”. For the same compound, the RR interval ([2]; 1, 3, 10 and 30 mg/kg i.v.) was “dose-dependent decreases”, the “Arterial blood pressure (mean, systolic and diastolic)” value ([2]; 1, 3, 10 and 30 mg/kg i.v., apparent decrease following 10 and 30 mg/kg) was “No consistent changes” and the “PR interval and QRS duration” value ([2]; 1, 3, 10 and 30 mg/kg i.v., potential PR shortening at 30 mg/kg) was “relatively unaffected”. The concentration at 5 min ([2]; beagle, dog, plasma, intravenous) was 6500 to 15000 ng/mL, the “QTcF and QTcV intervals” value ([2]; corrected for heart rate/RR interval, also when paced at 90 or 110 bpm) was “clear dose-dependent increase” and the Activity [3] was “increased activity”. For the same compound, the Body weight gain [3] was “no changes in body weight gain”, the “NA (AUC0-160 min)” value ([4]; Hippocampus, 3 mg/kg s.c., 3 mg/kg) was 138±13% and the “NA (AUC0-160 min)” value ([4]; Pre-frontal cortex, 10 mg/kg s.c., 10 mg/kg) was 135±4%. The IC50 (Nicotinic α7) was over 10 µM, the “DOPAC Mean ± SEM” value [5, 10] was 1 ± 0.2 and the “Dopamine Mean ± SEM” value [5, 10] was 6.3 ± 1.1. For the same compound, the “HVA Mean ± SEM” value [5, 10] was 0.7 ± 0.1, the “DOPAC Mean ± SEM” value [5, 11] was 1.7 ± 0.1^ and the “Dopamine Mean ± SEM” value [5, 11] was 12.5 ± 0.7. The “HVA Mean ± SEM” value [5, 11] was 1 ± 0.1, the “Protection against MPTP-induced dopamine depletion” value ([5]; 15 mg/kg, C57 mouse striatal tissue) was “approximately 90%” and the “DOPAC Mean ± SEM” value [5, 12] was 2.1 ± 0.2^. The “Dopamine Mean ± SEM” value [5, 12] was 14.7 ± 1.2, the “HVA Mean ± SEM” value [5, 12] was 1.2 ± 0.1 and the IC50 (Nicotinic α4β2) was 31 µM. The IC50 (NA transporter) was 0.085 µM, the IC50 (CYP 2C9) was over 100 µM and the AUC(0-inf) ([6]; 1 mg/kg s.c.) was 125 ng·h/mL. The Cmax ([6]; 1 mg/kg s.c.) was 69 ng/mL, the bioavailability ([6]; 1 mg/kg s.c., compared to 10 mg/kg i.v. in same vehicle) was 117% and the half-life ([6]; 1 mg/kg s.c.) was 40.2 min. It also gave a Cmax ([6]; 5 mg/kg s.c.) of 320 ng/mL, a bioavailability ([6]; 5 mg/kg s.c., compared to 10 mg/kg i.v. in same vehicle) of 113% and a half-life ([6]; 5 mg/kg s.c.) of 46.2 min. The Cmax ([6]; 10 mg/kg s.c.) was 729 ng/mL, the bioavailability ([6]; 10 mg/kg s.c., compared to 10 mg/kg i.v. in same vehicle) was 108% and the half-life ([6]; 10 mg/kg s.c.) was 40.8 min. For the same compound, the bioavailability ([6]; s.c. dosing in rats) was about 100%, the AUC(0-inf) ([6]; male, 5 mg/kg s.c.) was 604 ng·h/mL and the AUC(0-inf) ([6]; male, 10 mg/kg s.c.) was 1150 ng·h/mL. The Tmax ([6]; 1 mg/kg s.c.) was 60 min, the Tmax ([6]; 5 mg/kg s.c.) was 60 min and the Tmax ([6]; 10 mg/kg s.c.) was 30 min. For the same compound, the “Linearity of kinetics (AUC versus dose)” value ([6]; rats s.c., relatively low doses, single dose) was “very nice linear kinetics”, the IC50 (CYP 2C19) was over 100 µM and the “Body temperature in resting conditions” value (NMRI mice; 0.1, 1 and 3 mg/kg per oral, NMRI mice) was “did not change body temperature in resting conditions”. The Stress-induced temperature rise (NMRI mice; 0.1, 1 and 3 mg/kg per oral, NMRI mice, all three doses) was “temperature rise was significantly prevented”, the MED (NMRI mice; mSIH, p.o., −60 min) was 0.3 mg/kg and the Ki (hERG channels) was over 10 µM. The “Stability in human hepatocytes” value [7] was “stable”, the “Stability at 1 μM” value [8] was 100% and the “Stability at 5 μM” value [8] was 90%. The T½ i.v. ([9]; 10 mg/kg i.v., 10 mg/kg) was 48 min, the “AUC(0-∞) p.o.” value ([9]; 10 mg/kg p.o., 10 mg/kg) was 2308 ng·h/mL and the Vd [9, 13] was 3.5 L/kg. It also gave a clearance [9, 13] of 71.7 mL/min/kg, an AUC(0-inf) ([9]; female, NMRI, plasma, iv, 10 mg/kg, 10 mg/kg i.v., read-out: AUC(0-∞) i.v.) of 2310 ng·h/mL and a half-life ([9]; female, NMRI, plasma, iv, 10 mg/kg, 10 mg/kg i.v., read-out: T½ i.v. (converted)) of 36 min. The Cmax [9, 14] was 1090 ng/mL, the Tmax [9, 14] was 30 min and the AUC(0-inf) ([9]; female, NMRI, plasma, po, 10 mg/kg, 10 mg/kg p.o., read-out: AUC(0-∞) p.o.) was 1720 ng·h/mL. For the same compound, the half-life ([9]; female, NMRI, plasma, po, 10 mg/kg, 10 mg/kg p.o., read-out: T½ p.o. (converted)) was 66 min and the bioavailability ([9]; plasma, oral, female NMRI mice, 10 mg/kg p.o. vs 10 mg/kg i.v.) was 74%.
